# According to article PMC7328663, “Agonist-specific desensitization of PGE2-stimulated cAMP signaling due to upregulated phosphodiesterase expression in human lung fibroblasts” (Naunyn-Schmiedeberg's archives of pharmacology, 2019):
# “And” between values parts separate entries of the source, which are not always exact repeats. Equal entries are not always repeated.
# Columns and labels:
# [1] = tested on: PDE3B; assay: qRT-PCR of PDE3B mRNA after 24 h pretreatment; format: cell-based, human; settings: 24 h pretreatment: 1 μM forskolin, 100 nM isoproterenol or 100 nM PGE2; Fig. 6a
# Description: (§1) After 48-h incubation with the lentivirus, medium was aspirated, cells were washed once in 1× PBS, and buffer RLT was added to disrupt cell membranes. Cells were collected and RNA was isolated using RNeasy columns with a QIAcube robot (Qiagen). RNA was quantified using the NanoDrop 2000/2000c (Thermo Fisher). Reverse transcription was performed on 400 ng of RNA samples. All steps followed the SuperScript® III First-Strand Synthesis System for RT-PCR protocol (Thermo Fisher). The steps included a denaturation step at 65 °C for 5 min in the RNA/primer mixture, containing 50 ng/μL of random hexamers. Complementary DNA (cDNA) synthesis mixture was added to the RNA/primer mixture and incubated for 10 min at 25 °C, followed by 50 min at 50 °C. The reaction was terminated at 85 °C for 5 min, then chilled on ice. Finally, 1 μL of RNase H was added to each tube followed by incubation for 20 min at 37 °C. cDNA samples were either used immediately for quantitative reverse transcription polymerase chain reaction (qRT-PCR) experiments or stored at − 20 °C.
# (§2) TaqMan® Gene Expression Assays (Thermo Fisher) were used for qRT-PCR reactions. The ratio of components for each reaction was as follows: 1 μL 20× TaqMan® Gene Expression Assay, 10 μL 2× TaqMan® Gene Expression Mater Mix, 4 μL cDNA (1 ng to 100 ng), and 5 μL of RNase-free water. The thermal cycler settings were as follows: step 1, 50 °C for 2 min; step 2, 95 °C for 10 min; step 3, 95 °C for 15 s; and step 4, 60 °C for 1 min. Steps 3 and 4 were repeated for a total of 40 cycles. The housekeeping genes GAPDH, β-actin, and CDKN1A were used to normalize for differences in RNA samples. PCR data were analyzed using the 2^[−ΔΔCt] method, where Ct is the cycle threshold.
# [2] = tested on: PDE4D; assay: qRT-PCR of PDE4D mRNA after 24 h pretreatment; format: cell-based, human; settings: 24 h pretreatment: 1 μM forskolin, 100 nM isoproterenol or 100 nM PGE2; Fig. 6a
# Description: as §1, §2
# [3] = tested on: PDE4B; assay: qRT-PCR of PDE4B mRNA after 24 h pretreatment; format: cell-based, human; settings: 24 h pretreatment: 1 μM forskolin, 100 nM isoproterenol or 100 nM PGE2; Fig. 6a
# Description: as §1, §2
# [4] = tested on: PDE; assay: PDE activity assays in HFL-1 cell lysates ([3H]cAMP hydrolysis); format: biochemical, human; settings: for bulk PDE activity vs vehicle: cells treated 24 h with 30 μM forskolin, 100 nM PGE2 or 1 μM isoproterenol, Fig. 6c; for PDE activity in lysates in presence of inhibitor: roflumilast 1 μM or IBMX 1 mM in the assay, vehicle-, PGE2- and isoproterenol-pretreated cells, Fig. 6d
# [5] = tested on: HFL-1 cells; assay: cADDis assay for cAMP (fluorescent biosensor) in HFL-1 fibroblasts; format: cell-based, human; settings: for desensitization of PGE2 cAMP responses by pretreatment: 24 h pretreatment with 100 nM isoproterenol or 1 μM forskolin, Fig. 2a, Fig. 3; for leftward shift of PGE2 concentration-response curve (reversal of desensitization) by PDE inhibitor: 10 μM inhibitor, 10 min, Fig. 7a–c; for desensitization of β-AR (isoproterenol) cAMP responses by pretreatment: 24 h pretreatment with 100 nM PGE2 or 100 nM isoproterenol, Fig. 1d; for rightward shift of PGE2 responses induced by pretreatment: 24 h pretreatment with 100 nM of the agonist vs vehicle, Fig. 5b, n = 4; for EC50: Homo sapiens, HFL1; for PGE2 maximal response: normalized to 1 μM forskolin plus 200 μM IBMX, Fig. 4 experiments
# Description: HFL-1 fibroblasts (ATCC, Manassas, VA, USA) were grown in Ham’s F12K medium (Thermo Fisher Scientific, Waltham, MA, USA) with 10% fetal bovine serum (Atlanta Biologicals, Flowery Branch, GA, USA) and 1% antibiotic-antimycotic solution. Cells with a passage number of 13 to 25 were used and were grown to 70–90% confluency for all studies. Cells were grown in an incubator at 37 °C and 5% CO2 levels. Medium was aspirated and cells were washed once with PBS. After aspiration of PBS, 5 mL of 0.25% trypsin-EDTA (Thermo Fisher Scientific, Waltham, MA, USA) was added for 5 min to induce cell detachment. Media was added to the flask and gently mixed to suspend detached cells, transferred to tubes, centrifuged at 500g for 5 min, then washed to remove trypsin. The cell pellet was resuspended in growth medium, and approximately 9000 sells were plated per well on 96-well plates. Cells were pretreated with PGE2, other drugs, or vehicle prior to experiments by adding 10× concentration of drug to growth media. Medium was aspirated after 24 h, and each well was washed once with warm Dulbecco’s phosphate-buffered saline before performing cADDis assay for cAMP.
# The cADDis assay was purchased from Montana Molecular (Bozeman, MT, USA). HFL-1 cells were incubated with a recombinant mammalianized baculovirus (BacMam) engineered to express a genetically modified protein that is a fusion of EPAC, a cAMP effector, with the green fluorescent protein (GFP). This protein serves as a convenient and quantitative cAMP sensor. In its unbound form, the protein fluoresces, but its fluorescence is quenched upon binding of cAMP. When seeding the cells in a 96-well plate, the following components were added: […] of cells plus media, 40 μL BacMam solution, and 2 μL of trichostatin A (an inhibitor of histone deacetylase) (Sigma®, St. Louis, MO, USA). In the 96-well plate format, approximately 8900 cells were seeded per well and 2.95 × 10^8 viral particles per well were added. Trichostatin A stock concentration was 100 μM, giving a final concentration of 1 μM in the final volume of 200 μL per well. Transduced HFL-1 cells were incubated for 24 h at 37 °C and 5% CO2 levels. After incubation, medium was aspirated and replaced with 180 μL per well of 1× Dulbecco’s phosphate-buffered saline without calcium and magnesium (Thermo Fisher Scientific, Waltham, MA, USA). The 96-well plate was then covered with aluminum foil and incubated at 37 °C for 30 min. The plate was placed in a SpectraMax M5 plate reader (Molecular Devices, San Jose, CA, USA), and fluorescence was read from the bottom of the plate with an excitation wavelength of 494 nm and an emission wavelength of 522 nm for 5 min. Once variability of fluorescence was ≤ 5% in all wells, different concentrations ofPGE2 or other agents were added with a multi-pipette and the changes in fluorescence were measured every 30 s for 30 min.
# Data from kinetic studies of fluorescence were normalized to the original level of fluorescence (ΔF/F0) and then fit to a single-site decay model using GraphPad Prism 7.0 (GraphPad Software Inc., San Diego, CA, USA). The plateau of each decay curve was then used as the maximal response to that given concentration of drug (Emax), and concentration-response curves were generated using nonlinear regression analysis (log [agonist] vs. response, variable slope, four parameters) using GraphPad Prism 7.0. Concentration-response curves in multiple conditions were compared using two-way analysis of variance (2-way ANOVA) with Tukey’s multiple comparison test, and significance (p value) is reported for the effect of different conditions. Statistical comparison tests (t tests, 1-way and 2-way ANOVA) were performed using GraphPad Prism.
# [6] = tested on: PDE3A; assay: qRT-PCR of PDE3A mRNA after 24 h pretreatment; format: cell-based, human; settings: 24 h pretreatment: 1 μM forskolin, 100 nM isoproterenol or 100 nM PGE2; Fig. 6a
# Description: as §1, §2
# [7] = tested on: HFL-1 cells; assay: Assay of basal cAMP (EIA of TCA extracts); format: cell-based, human; settings: cells pretreated with 100 nM PGE2 for 24 h; not significant vs vehicle (p = 0.815)
# Description: HFL-1 cells were washed three times with serum- and NaHCO3-free DMEM supplemented with 20 mM HEPES, pH 7.4 (DMEH), then incubated for 30 min at 37 °C. Medium was aspirated, and 250 μL of trichloroacetic acid (TCA, 7.5% w/v) was added to each well. cAMP content in TCA extracts was determined by EIA (Cayman Chemical) following the manufacturer’s instructions. The amount of cAMP was normalized to the amount of protein per sample as determined using a dye-binding protein assay (Bio-Rad).
# [8] = tested on: EP2R; assay: qRT-PCR of EP2R mRNA after 24 h pretreatment; format: cell-based, human; settings: 24-h pretreatment with 100 nM PGE2; Fig. 6a
# Description: TaqMan® Gene Expression Assays (Thermo Fisher) were used for qRT-PCR reactions. […] PCR data were analyzed using the 2^[−ΔΔCt] method, where Ct is the cycle threshold.
# [9] = cells pretreated with 100 nM PGE2 for 24 h
# [10] = acute cAMP increase, no pretreatment, Fig. 5a
compound,measurement,setting,value
C=C[C@@]1(C)CC(=O)[C@]2(O)[C@@]3(C)[C@@H](O)CCC(C)(C)[C@@H]3[C@H](O)[C@H](OC(C)=O)[C@@]2(C)O1 [forskolin],PDE3B mRNA expression,[1],Significant upregulation
same,"PDE4D mRNA expression, fold change over vehicle",[2],7.9 fold
same,"PDE4B mRNA expression, fold change over vehicle",[3],3.9 fold
same,bulk PDE activity vs vehicle,[4],significantly increased PDE activity
same,desensitization of PGE2 cAMP responses by pretreatment,[5],did not cause desensitization of PGE2 responses
same,"PDE3A mRNA expression, fold change over vehicle",[6],no effect
"CC(C)Cn1c(=O)n(C)c(=O)c2[nH]cnc21 [IBMX, 3-isobutyl-1-methylxanthine]",PDE activity in lysates in presence of inhibitor,[4],significantly reduced PDE activity
same,leftward shift of PGE2 concentration-response curve (reversal of desensitization) by PDE inhibitor,[5]; [9],small leftward shift that was not statistically significant
"CCCCC[C@H](O)/C=C/[C@H]1[C@H](O)CC(=O)[C@@H]1C/C=C\CCCC(=O)O [PGE2, prostaglandin E2]",PDE3B mRNA expression,[1],Significant upregulation
same,basal cAMP level,[7],57.9 ± 13.8 fmol/mg protein
same,"PDE4D mRNA expression, fold change over vehicle",[2],22.3 fold
same,"PDE4B mRNA expression, fold change over vehicle",[3],2.6 fold
same,bulk PDE activity vs vehicle,[4],significantly increased PDE activity
same,"bulk PDE activity vs vehicle, time course","[4]; cells treated with 100 nM PGE2 from 5 min to 24 h, after 6 h or more",significant increases
same,EP2R mRNA levels,[8],did not observe any change
same,desensitization of β-AR (isoproterenol) cAMP responses by pretreatment,[5]; Fig. 2b,does not cause desensitization
same,rightward shift of PGE2 responses induced by pretreatment,[5],8.0 ± 2.2 fold
same,EC50,"[5]; acute PGE2 cAMP response, 24 h vehicle pretreatment, Table 1/Fig. 1c, mean ± SEM n = 3–10",39.8 nM
same,EC50,[5]; [10],3.31 nM
same,PGE2 maximal response,"[5]; PGE2-pretreated cells (100 nM, 24 h)",0.60 ± 0.09
same,Emax,"[5]; PGE2 response after 24 h pretreatment with 1, 10 or 100 nM PGE2 vs vehicle",None of the pretreatment conditions produced a significant reduction
same,PGE2 maximal response,[5]; vehicle-pretreated cells,1.06 ± 0.10
same,"PDE3A mRNA expression, fold change over vehicle",[6],7.3 fold
O=C(Nc1c(Cl)cncc1Cl)c1ccc(OC(F)F)c(OCC2CC2)c1 [roflumilast],PDE activity in lysates in presence of inhibitor,[4],significantly reduced PDE activity
CC(C)NCC(O)c1ccc(O)c(O)c1 (stereo not drawn) [isoproterenol],PDE3B mRNA expression,[1],Significant upregulation
same,"PDE4D mRNA expression, fold change over vehicle",[2],5.0 fold
same,"PDE4B mRNA expression, fold change over vehicle",[3],1.3 fold
same,bulk PDE activity vs vehicle,[4],does not
same,desensitization of β-AR (isoproterenol) cAMP responses by pretreatment,[5]; Fig. 2b,induces desensitization of β-AR responses
same,desensitization of PGE2 cAMP responses by pretreatment,[5],does not decrease responses to PGE2
same,EC50,"[5]; acute isoproterenol cAMP response, 24 h pretreatment with 100 nM isoproterenol, Fig. 2b",2.24 nM
same,"PDE3A mRNA expression, fold change over vehicle",[6],no effect
C=CCC1([C@@H](O)C/C=C/[C@@H]2[C@@H](C/C=C\CCCC(=O)O)[C@H](Cl)C[C@H]2O)CCC1 [ONO-AE1–259],rightward shift of PGE2 responses induced by pretreatment,[5],4.0 ± 1.2 fold and 4 fold
same,log EC50,[5]; [10],−8.29
COc1ccc(C2CNC(=O)C2)cc1OC1CCCC1 (stereo not drawn) [rolipram],leftward shift of PGE2 concentration-response curve (reversal of desensitization) by PDE inhibitor,[5]; [9],2.8 fold
same,effect on isoproterenol cAMP responses,"[5]; 10 μM rolipram, cells pretreated with 100 nM PGE2 for 24 h, Fig. 7d",had no effect
CCOc1c2c(c(OCC)c3ccccc13)C(=O)N(c1ccc(CC(=O)NS(=O)(=O)c3ccccc3)cc1)C2 [GW-627368X],shift of PGE2 concentration-response curve by antagonist,"[5]; antagonist 100 nM, cells pretreated with 100 nM PGE2 for 24 h, Fig. 4",did not
same,rightward shift of PGE2 concentration-response curve by antagonist,"[5]; antagonist 100 nM, vehicle-pretreated cells",did not cause a rightward shift
O=C1CCc2cc(OCCCCc3nnnn3C3CCCCC3)ccc2N1 [cilostazol],leftward shift of PGE2 concentration-response curve (reversal of desensitization) by PDE inhibitor,[5]; [9],had no effect
